The NIST ThermoML archive (doi:10.1016/j.jct.2008.01.023)

How the values were obtained:
[1] = refractive index (Na D-line) (dimensionless); settings: 298.15 K; 101.33 kPa; Liquid; Standard Abbe refractometry
[2] = 298.15 K; 101.33 kPa; Liquid
[3] = xn = mol fraction of the nth substance listed; settings: 298.15 K, 101 kPa, Liquid
[4] = refractive index (Na D-line) (dimensionless); xn = mol fraction of the nth substance listed; settings: 298.15 K, 101 kPa, Liquid, Standard Abbe refractometry

OCCO [1,2-ethanediol]
Settings | refractive index
[1] | 1.4304

ClCCCCl [1,3-dichloropropane]
Settings | mass density [kg/m3] | refractive index
[1] | – | 1.446
[2] | 1179.1 | –

ClCCCCl [1,3-dichloropropane] + CCCCn1cc[n+](C)c1.COS(=O)(=O)[O-]
Settings | mass density, [3] [kg/m3] | refractive index, [4]
x2 = 0.0429 | 1183.63 | 1.4499
x2 = 0.0674 | 1185.62 | 1.4518
x2 = 0.104 | 1188.24 | 1.4543
x2 = 0.1376 | 1190.37 | 1.4564
x2 = 0.1894 | 1193.17 | 1.4596
x2 = 0.2496 | 1195.76 | 1.4624
x2 = 0.3166 | 1198.02 | 1.4654
x2 = 0.3917 | 1200.02 | 1.4677
x2 = 0.4881 | 1201.98 | 1.4706
x2 = 0.5686 | 1203.19 | 1.4725
x2 = 0.6797 | 1204.61 | 1.4747
x2 = 0.7887 | 1205.73 | 1.4765
x2 = 0.8987 | 1206.82 | 1.4784

ClCCCCl [1,3-dichloropropane] + CCCCn1cc[n+](C)c1.F[B-](F)(F)F
Settings | mass density, [3] [kg/m3] | refractive index, [4]
x2 = 0.0536 | 1184.13 | 1.4448
x2 = 0.1135 | 1187.8 | 1.443
x2 = 0.1516 | 1189.78 | 1.4418
x2 = 0.2101 | 1192.32 | 1.4401
x2 = 0.2817 | 1194.71 | 1.4381
x2 = 0.3528 | 1196.53 | 1.4359
x2 = 0.4042 | 1197.51 | 1.4345
x2 = 0.4626 | 1198.41 | 1.433
x2 = 0.5254 | 1199.14 | 1.4314
x2 = 0.5466 | 1199.38 | 1.4309
x2 = 0.5955 | 1199.76 | 1.4296
x2 = 0.6786 | 1200.34 | 1.4276
x2 = 0.7863 | 1200.89 | 1.4255
x2 = 0.9028 | 1201.2 | 1.4234

CCCCn1cc[n+](C)c1.COS(=O)(=O)[O-] [1-butyl-3-methylimidazolium methyl sulfate]
Settings | mass density [kg/m3] | refractive index
[1] | – | 1.4794
[2] | 1207.75 | –
